26 molecules from ChEMBL document CHEMBL1201862, “PubChem BioAssay data set” (2004) can be followed below.

Test systems include XF498; RXF 631; DMS-273; DLD-1; KM-20L2; SNB-78; MCF7; BT-549; Hs-578T.
Common to all, as to assay: NCI-60 cell line screen, 48 h

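Values below derive from 48-hour exposures of cells grown in 96-well plates, with endpoints linearly interpolated between the two concentrations bracketing the appropriate inhibition level. Abbreviation: GI50, concentration required for 50% inhibition of growth.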 Activity calls are given as the source filed them. Rule as the data show it: active = GI50 up to about 1.1 µM and inactive = higher.

As to `CN/C=C(/c1ccc(OC)cc1)C(O)c1ccc(OC)c(OC)c1` (centres undefined), the GI50 in the assay on XF498, with RXF 631, with DMS-273, in the assay with DLD-1 and in the assay with KM-20L2 was > 100 µM (inactive) throughout.

With `O=C(O/N=C1/CCCC/C1=C\c1ccccc1)c1ccc(Cl)c(Cl)c1`, the GI50 is 48.8 µM (inactive) in the assay with XF498; 16.8 µM (inactive) in the assay with RXF 631; 23.9 µM (inactive) in the assay on DMS-273; 84.5 µM (inactive) with DLD-1; 19.1 µM (inactive) in the assay on SNB-78; 65.3 µM (inactive) in the assay on KM-20L2.

In the case of `CCN1CCC(O)(c2ccc(C)cc2)C(C(=O)c2ccc(C)cc2)C1` (centres undefined), the GI50 is 18 µM (inactive) in the assay on XF498; 19.8 µM (inactive) in the assay on DMS-273; 18.1 µM (inactive) in the assay on DLD-1; > 51.8 µM (inactive) in the assay on SNB-78; 13 µM (inactive) with KM-20L2.

For the molecule `CN(C)c1ccc2c(c1)C(=O)N(OS(=O)(=O)c1ccc([N+](=O)[O-])cc1)C2=O`, the GI50 is 16.7 µM (inactive) in the assay with XF498; 22.3 µM (inactive) in the assay with RXF 631; 19.9 µM (inactive) in the assay on DMS-273; 24 µM (inactive) in the assay on DLD-1; 26.7 µM (inactive) in the assay with SNB-78.

Consider `CC(C)(C)C1CC[C@H]2c3c([nH]c4ccccc34)[C@H]3C(=O)N(c4ccc(F)cc4)C(=O)[C@H]3[C@H]2C1` (some centres undefined), for which the GI50 in the assay on XF498 was 14.2 µM (inactive); in the assay on DMS-273, 17.8 µM (inactive); in the assay with DLD-1, 16.8 µM (inactive); with SNB-78, 18.4 µM (inactive); in the assay with KM-20L2, 17.5 µM (inactive).

`OCC(O)CNc1ccnc2cc(Cl)ccc12` (centres undefined): the GI50 in the assay on XF498, with DLD-1, with SNB-78 and with KM-20L2 was > 100 µM (inactive) each time.

For the molecule `COc1cc(C=O)c(-c2c(C=O)ccc3c2OCO3)c(OC)c1OC`, the GI50 with RXF 631 is > 100 µM (inactive); with DMS-273, 72.6 µM (inactive); with DLD-1, > 100 µM (inactive); with SNB-78, > 100 µM (inactive); in the assay on KM-20L2, > 100 µM (inactive).

Take `O=C(NCc1cccnc1)C1COc2cc(-c3cc(=O)c4ccccc4o3)ccc2O1` (centres undefined): the GI50 in the assay on XF498 is 24.6 µM (inactive); in the assay with RXF 631, > 56.1 µM (inactive); with DLD-1, > 100 µM (inactive); in the assay with SNB-78, > 82.8 µM (inactive); in the assay with KM-20L2 it was > 100 µM (inactive).

As for `COc1ccc2c3c1O[C@]1(C)C34CCN(C)C(C2)C42C=C[C@@]1(OC)c1c(O)ccc(O)c12`, the GI50 in the assay with XF498 was > 100 µM (inactive); in the assay on DMS-273, > 100 µM (inactive); with DLD-1, > 100 µM (inactive); with SNB-78, 61.8 µM (inactive); with KM-20L2, > 100 µM (inactive).

As to `O=NN(CCCl)C(=O)NC1CCCCC1` [LOMUSTINE], the GI50 in the assay on MCF7 was 35.5 µM (inactive); with BT-549 it was 8.24 µM (inactive); with XF498, 64.9 µM (inactive); with RXF 631, 47.8 µM (inactive); in the assay on DMS-273, 48.1 µM (inactive); in the assay with DLD-1, 30.2 µM (inactive). Also, the GI50 was 37.9 µM (inactive) with Hs-578T and 60.3 µM (inactive) with KM-20L2.

As for `COc1cccc(/C=C2\N=C(Cl)OC2=O)c1O`, the GI50 is > 100 µM (inactive) in the assay on XF498; > 100 µM (inactive) in the assay on DMS-273; > 76.7 µM (inactive) in the assay on DLD-1; > 100 µM (inactive) in the assay with SNB-78; > 100 µM (inactive) in the assay with KM-20L2.

In the case of `c1cnn(CN(Cn2cccn2)Cn2cccn2)c1`, the GI50 in the assay with XF498, with DMS-273, with DLD-1, with SNB-78 and in the assay on KM-20L2 was > 100 µM (inactive) each time.

For the molecule `CC1(CO)OC(n2cc(C(=O)NC(=O)OCc3ccccc3)c(=O)[nH]c2=O)CC1O` (centres undefined), the GI50 in the assay with XF498, with RXF 631, in the assay on DMS-273, with DLD-1 and in the assay on KM-20L2 was > 100 µM (inactive) each time.

Take `CC1=C(C(=O)Nc2ccccc2C)C(c2ccc(N(C)C)cc2)C(C(=O)Nc2ccccc2C)=C(C)N1`: the GI50 was 22.6 µM (inactive) in the assay with XF498; 56.4 µM (inactive) in the assay on RXF 631; 64.9 µM (inactive) in the assay on DMS-273; 45.9 µM (inactive) in the assay with DLD-1; > 100 µM (inactive) in the assay with KM-20L2.

`O=c1cc(-c2ccccc2)oc2ccc(Cl)cc12` [6-CHLOROFLAVONE]: the GI50 with MCF7 is 20.7 µM (inactive); in the assay with BT-549, > 100 µM (inactive); in the assay with XF498 it was 37.2 µM (inactive); in the assay with DMS-273 it was 72.9 µM (inactive); in the assay on DLD-1, > 100 µM (inactive); in the assay with Hs-578T, > 44.8 µM (inactive). For the same molecule, the GI50 with SNB-78 was 48.2 µM (inactive); with KM-20L2, > 100 µM (inactive).

As to `Cc1cc(Cl)ccc1NC(=O)CC/C(CC(=O)C(C)C)=N\NC(=O)C[n+]1ccccc1`, the GI50 in the assay with XF498, in the assay with RXF 631, with DMS-273, with SNB-78 and in the assay with KM-20L2 was > 100 µM (inactive) throughout.

Take `O=S(=O)(SCCCCSS(=O)(=O)c1ccc(Cl)cc1)c1ccc(Cl)cc1`: the GI50 in the assay with RXF 631 was 8.2 µM (inactive); in the assay on DMS-273 it was 10.3 µM (inactive); with DLD-1, 13.8 µM (inactive); in the assay on SNB-78, 18.6 µM (inactive); in the assay with KM-20L2, 18 µM (inactive).

For `CC(C)CCCC(C)C1CCC2C3CC([N+](=O)[O-])=C4CC(O)CCC4(C)C3CCC12C` (centres undefined), the GI50 in the assay on XF498 is 22.3 µM (inactive); with DMS-273 it was 12.6 µM (inactive); with DLD-1, 19 µM (inactive); with KM-20L2, 18.5 µM (inactive).

For `O=C(c1ccccc1)C(C(=O)c1ccccc1)C1(O)C(=O)c2ccccc2C1=O`, the GI50 in the assay with XF498 is 84.1 µM (inactive); in the assay with DMS-273, 20.6 µM (inactive); with SNB-78, 62.2 µM (inactive); in the assay with KM-20L2, 34.9 µM (inactive).

With `CCOC(=O)C(/N=N\c1ccc(S(N)(=O)=O)cc1)C(C)=O` (centres undefined), the GI50 in the assay on XF498, with RXF 631, in the assay with DMS-273, with DLD-1, in the assay on SNB-78 and in the assay on KM-20L2 was > 100 µM (inactive) each time.

Regarding `COc1cc(C2c3cc4c(cc3[C@H](OCCN(C)C)[C@@H]3COC(=O)C23)OCO4)cc(OC)c1O` (some centres undefined), the GI50 was 0.0484 µM (active) in the assay on MCF7; 0.499 µM (active) in the assay with BT-549; 0.115 µM (active) in the assay with XF498; 0.0724 µM (active) with RXF 631; 0.0385 µM (active) in the assay on DMS-273; 0.805 µM (active) with DLD-1. For the same molecule, the results for the GI50 with Hs-578T, in the assay with SNB-78 and in the assay on KM-20L2 were 1.52 µM (inactive), 3.83 µM (inactive) and 0.364 µM (active), respectively.

On to `Nc1nc(N)c(-c2ccccc2)c(C(=O)Nc2ccccc2)n1`, for which the GI50 in the assay with XF498, with DLD-1, with SNB-78 and in the assay on KM-20L2 was > 100 µM (inactive) throughout.

`C/C(CCn1[nH]c(=O)ccc1=O)=N\N=C(N)N`: the GI50 in the assay on XF498, in the assay on DMS-273, with DLD-1, in the assay on SNB-78 and in the assay on KM-20L2 was > 100 µM (inactive) each time.

For `Nc1ccc(C(=O)NN2C(=O)C(Cl)C2c2cc(Br)cc(Br)c2O)cc1` (centres undefined), the GI50 was 14.1 µM (inactive) with XF498; 6.4 µM (inactive) in the assay on DMS-273; 13.3 µM (inactive) with DLD-1; 63.8 µM (inactive) in the assay with SNB-78; 33.3 µM (inactive) in the assay on KM-20L2.

For the molecule `COc1ccccc1NC(=O)C1=C(C)NC(C)=C(C(=O)Nc2ccccc2OC)C1c1ccccc1[N+](=O)[O-]`, the GI50 in the assay on XF498 is 22.2 µM (inactive); with RXF 631 it was 19.6 µM (inactive); with DMS-273 it was 17.9 µM (inactive); in the assay with DLD-1, 16.9 µM (inactive); in the assay with SNB-78, 34.2 µM (inactive).

`COc1ccc(/C=C/C(=O)c2sc(-n3nc(-c4ccccc4)cc3-c3ccccc3)nc2C)cc1`: the GI50 with XF498 is 33.7 µM (inactive); in the assay with RXF 631 it was > 10 µM (inactive); in the assay with DMS-273, > 10 µM (inactive); in the assay with DLD-1 it was > 10 µM (inactive); in the assay on SNB-78 it was > 10 µM (inactive); in the assay on KM-20L2, 77.4 µM (inactive).
